This passage reports pest or weed control results from patent US20250228239A1, “MOLECULES HAVING PESTICIDAL UTILITY, AND INTERMEDIATES, COMPOSITIONS, AND PROCESSES, RELATED THERETO” (priority 2024, published 2025).

Assay [1] concerns Beet Armyworm (Spodoptera exigua, LAPHEG). Put plainly: Bioassays on Beet Armyworm (BAW), 128-well diet tray assay. It counts as in vivo. As to conditions: Spodoptera exigua. In a few lines: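 One to five second-instar larvae per well on artificial diet surface-treated with 50 μg/cm^2 test molecule (applied in 90:10 acetone-water, dried), eight wells per compound. Trays held vented at 25° C., 14:10 light-dark for five to seven days; percent mortality averaged over the eight wells.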

For assay [2], the system named is Cabbage Looper (Trichoplusia ni, TRIPNI). Put plainly: Bioassays on Cabbage Looper (CL), 128-well diet tray assay. It counts as in vivo. As to conditions: Trichoplusia ni. In a few lines:
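Diet tray, 2nd instar, 1–5 larvae/well; 50 μg/cm^2 compound surface-applied (acetone:water 90:10), dried; 8 wells/treatment; 25° C, 14:10 L:D, 5–7 d; % mortality, mean of 8 wells.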

The mark [3] stands for this setting: Beet Armyworm, Table ABC / ABC-DP rating, read-out: BAW rating.
[4] abbreviates: Cabbage Looper, Table ABC / ABC-DP rating, read-out: CL rating.
Where [5] appears, read: Beet Armyworm, rating class, read-out: BAW.
Where [6] appears, read: Cabbage Looper, rating class, read-out: CL.
Setting [7] is: Table ABC: Biological Results, species BAW, read-out: BAW.
The mark [8] stands for this setting: Table ABC: Biological Results, species CL, read-out: CL.

Read-outs that look alike come from different tables or passages of the source.

`O=C(Nc1ccc(F)c(NC(=O)C2CCOC2C(F)(F)F)c1F)c1cc(NC(=O)[C@H]2[C@H](c3ccc(F)c(C(F)(F)F)c3)C2(Cl)Cl)ccc1Cl` (stereo partly drawn) [F1837, N-(3-(2-Chloro-5-((1R,3R)-2,2-dichloro-3-(4-fluoro-3-(trifluoromethyl)phenyl)cyclopropane-1-carboxamido)benzamido)-2,6-difluorophenyl)-2-(trifluoromethyl)tetrahydrofuran-3-carboxamide]: the pest or weed control at 50 µg/cm2 in assay [1] (setting [3]) and in assay [2] (setting [4]) was 50 to 100% each time.

Turning to `O=C(NCC(F)(F)F)c1cc(NC(=O)[C@H]2[C@H](c3ccc(F)c(C(F)(F)F)c3)C2(Cl)Cl)c(F)cc1Cl` [F2084, 2-Chloro-5-((1R,3R)-2,2-dichloro-3-(4-fluoro-3-(trifluoromethyl)phenyl)cyclopropane-1-carboxamido)-4-fluoro-N-(2,2,2-trifluoroethyl)benzamide], the pest or weed control at 50 µg/cm2 in assay [1] (setting [3]) and in assay [2] (setting [4]) was 50 to 100% in each case.

Turning to `O=C(Nc1cc(NC(=O)C(F)F)c(F)cc1F)c1cc(NC(=O)[C@H]2[C@H](c3cc(Cl)c(Cl)c(Cl)c3)C2(Cl)Cl)cc(F)c1F` [F1580, 5-((1R,3R)-2,2-Dichloro-3-(3,4,5-trichlorophenyl)cyclopropane-1-carboxamido)-N-(5-(2,2-difluoroacetamido)-2,4-difluorophenyl)-2,3-difluorobenzamide], the pest or weed control at 50 µg/cm2 in assay [1] (setting [5]) and in assay [2] (setting [6]) was 50 to 100% in each case.

As for `O=C(Nc1ccc(F)c(NC(=O)C(F)(F)F)c1F)c1cc(NC(=O)[C@H]2[C@H](c3ccc(F)c(C(F)(F)F)c3)C2(Cl)Cl)cc(F)c1F` [F1572, 5-((1R,3R)-2,2-Dichloro-3-(4-fluoro-3-(trifluoromethyl)phenyl)cyclopropane-1-carboxamido)-N-(2,4-difluoro-3-(2,2,2-trifluoroacetamido)phenyl)-2,3-difluorobenzamide], the pest or weed control at 50 µg/cm2 in assay [1] (setting [5]) and in assay [2] (setting [6]) was 50 to 100% in each case.

Take `O=C(Nc1c(F)ccc(NC(=O)C(F)(F)F)c1F)c1cc(NC(=O)[C@H]2[C@H](c3ccc(F)c(C(F)(F)F)c3)C2(Cl)Cl)ccc1Cl` [F1538, 2-Chloro-5-((1R,3R)-2,2-dichloro-3-(4-fluoro-3-(trifluoromethyl)phenyl)cyclopropane-1-carboxamido)-N-(2,6-difluoro-3-(2,2,2-trifluoroacetamido)phenyl)benzamide]: the pest or weed control at 50 µg/cm2 in assay [1] (setting [5]) and in assay [2] (setting [6]) was 50 to 100% throughout.

With `O=C(Nc1ccc(F)c(NC(=O)C(F)(F)C(F)C(F)(F)F)c1F)c1cc(NC(=O)[C@H]2[C@H](c3ccc(F)c(C(F)(F)F)c3)C2(Cl)Cl)ccc1Cl` (stereo partly drawn) [F1839, 2-Chloro-5-((1R,3R)-2,2-dichloro-3-(4-fluoro-3-(trifluoromethyl)phenyl)cyclopropane-1-carboxamido)-N-(2,4-difluoro-3-(2,2,3,4,4,4-hexafluorobutanamido)phenyl)benzamide], the pest or weed control at 50 µg/cm2 in assay [1] (setting [3]) and in assay [2] (setting [4]) was 50 to 100% in each case.

As for `CN(C(=O)C(F)F)c1c(F)ccc(NC(=O)c2cc(NC(=O)[C@H]3[C@H](c4cc(Cl)cc(Cl)c4)C3(Cl)Cl)ccc2Cl)c1F` [F1462, 2-Chloro-5-((1R,3R)-2,2-dichloro-3-(3,5-dichlorophenyl)cyclopropane-1-carboxamido)-N-(3-(2,2-difluoro-N-methylacetamido)-2,4-difluorophenyl)benzamide], the pest or weed control at 50 µg/cm2 in assay [1] (setting [5]) and in assay [2] (setting [6]) was 50 to 100% each time.

As to `O=C(Nc1c(F)ccc(NC(=O)C(F)(F)F)c1F)c1cc(NC(=O)[C@H]2[C@H](c3ccc(Cl)c(Cl)c3)C2(Cl)Cl)ccc1F` [F1513, 5-((1R,3R)-2,2-Dichloro-3-(3,4-dichlorophenyl)cyclopropane-1-carboxamido)-N-(2,6-difluoro-3-(2,2,2-trifluoroacetamido)phenyl)-2-fluorobenzamide], the pest or weed control at 50 µg/cm2 in assay [1] (setting [5]) and in assay [2] (setting [6]) was 50 to 100% in each case.

Regarding `Cc1cc(NC(=O)[C@H]2[C@H](c3ccc(Cl)c(Cl)c3)C2(Cl)Cl)cc(C(=O)Nc2c(F)ccc(NC(=O)C(F)F)c2F)c1Cl` [F1429, 2-Chloro-5-((1R,3R)-2,2-dichloro-3-(3,4-dichlorophenyl)cyclopropane-1-carboxamido)-N-(3-(2,2-difluoroacetamido)-2,6-difluorophenyl)-3-methylbenzamide], the pest or weed control at 50 µg/cm2 in assay [1] (setting [5]) and in assay [2] (setting [6]) was 50 to 100% throughout.

As to `Nc1c(F)ccc(NC(=O)c2cc(NC(=O)C3C(c4cc(F)cc(Br)c4F)C3(Cl)Cl)ccc2Cl)c1F` (stereo not drawn) [F1097, cis-(3-Amino-2,4-difluorophenyl)-5-(3-(3-bromo-2,5-difluorophenyl)-2,2-dichlorocyclopropane-1-carboxamido)-2-chlorobenzamide], the pest or weed control at 50 µg/cm2 in assay [1] (setting [7]) and in assay [2] (setting [8]) was 50 to 100% throughout.

Turning to `CCNC(=O)c1cc(NC(=O)[C@H]2[C@H](c3ccc(F)c(Cl)c3)C2(Cl)Cl)cc(F)c1Cl` (relative stereo) [F2033, trans-2-Chloro-5-(2,2-dichloro-3-(3-chloro-4-fluorophenyl)cyclopropane-1-carboxamido)-N-ethyl-3-fluorobenzamide], the pest or weed control at 50 µg/cm2 in assay [1] (setting [3]) and in assay [2] (setting [4]) was 50 to 100% in each case.

Turning to `Cc1cc(NCc2ccc(NC(=O)OC(C)(C)C)cc2)ccc1NC(=O)c1cc(NC(=O)[C@H]2[C@H](c3cc(Cl)cc(Cl)c3)C2(Cl)Cl)ccc1Cl` (relative stereo) [F1348, trans-tert-Butyl (4-(((4-(2-chloro-5-(2,2-dichloro-3-(3,5-dichlorophenyl)cyclopropane-1-carboxamido)benzamido)-3-methylphenyl)amino)methyl)phenyl)carbamate], the pest or weed control at 50 µg/cm2 in assay [1] (setting [7]) and in assay [2] (setting [8]) was 50 to 100% throughout.

With `O=C(Nc1ccc(F)c(NC(=O)C(F)F)c1F)c1cc(NC(=O)[C@H]2[C@H](c3cc(Cl)c(Cl)c(Cl)c3)C2(Cl)Cl)ccc1Cl` [F1269, 2-Chloro-5-((1R,3R)-2,2-dichloro-3-(3,4,5-trichlorophenyl)cyclopropane-1-carboxamido)-N-(3-(2,2-difluoroacetamido)-2,4-difluorophenyl)benzamide], the pest or weed control at 50 µg/cm2 in assay [1] (setting [7]) and in assay [2] (setting [8]) was 50 to 100% throughout.

For the compound `CC(=O)Nc1ccc(F)c(NC(=O)c2cc(NC(=O)[C@H]3[C@H](c4ccc(F)c(C(F)(F)F)c4)C3(Cl)Cl)cc(F)c2F)c1F` [F1576, N-(3-Acetamido-2,6-difluorophenyl)-5-((1R,3R)-2,2-dichloro-3-(4-fluoro-3-(trifluoromethyl)phenyl)cyclopropane-1-carboxamido)-2,3-difluorobenzamide], the pest or weed control at 50 µg/cm2 in assay [1] (setting [5]) and in assay [2] (setting [6]) was 50 to 100% in each case.

For the compound `O=C(COC(F)(F)F)Nc1ccc(F)c(NC(=O)c2cc(NC(=O)[C@H]3[C@H](c4cc(Cl)c(Cl)c(Cl)c4)C3(Cl)Cl)cc(F)c2F)c1F` [F1777, 5-((1R,3R)-2,2-Dichloro-3-(3,4,5-trichlorophenyl)cyclopropane-1-carboxamido)-N-(2,6-difluoro-3-(2-(trifluoromethoxy)acetamido)phenyl)-2,3-difluorobenzamide], the pest or weed control at 50 µg/cm2 in assay [1] (setting [3]) and in assay [2] (setting [4]) was 50 to 100% throughout.
